Laboratory results as given in patent publication US20170275287A1, “NOVEL N2, N4, N7, 6-TETRASUBSTITUTED PTERIDINE-2,4,7-TRIAMINE AND 2, 4, 6, 7-TETRASUBSTITUTED PTERIDINE COMPOUNDS AND METHODS OF SYNTHESIS AND USE THEREOF” (Janus Biotherapeutics, Inc., priority 2014, published 2017).
Values after ≈ are worked out from the molar mass of the structure shown. Where two headings read alike, the source gives them in different places.

Tests used:
[1] = Aqueous solubility (CEREP); type: physicochemical
Experimental: (§1) Preliminary screening measures were conducted by CEREP. All values fall within acceptable limits (Table 5). Solubility assays where performed by CEREP, Seattle, Wash., according to Lipinski, C. A. et al., 1997, Adv. Drug Del. Rev., 46:3-26. Protein binding assays where performed by CEREP, Seattle, Wash., according to Banker, M. J. et al., 2003, J. Pharm. Sci., 92:967-974. Permeability assays where performed by CEREP, Seattle, Wash. according to Hildalgo, I. J., 1998, Gastroenterology, 96:736-749. Metabolic stability assays where performed by CEREP, Seattle, Wash., according to Obach, R. S. et al., 1997, J. Pharmacol. Exp. Ther., 283:46-58. P-glycoprotein inhibition assays where performed by CEREP, Seattle, Wash., according to Polli, J. W. et al., 2001, J. Pharm. Exp. Ther., 299:620-628. Cell viability assays where performed by CEREP, Seattle, Wash., according to Mosmann, T., 1983, J. Immunol. Met. 65:55-62. hERG automated patch clamp assays where performed by CEREP, Seattle, Wash., according to Mathes, C., 2006, Expert Opin. Ther. Targets, 10:230-241.

[2] = LogD, pH 7.4; type: physicochemical
[3] = biological target: T1, TLR9 (Rattus norvegicus, UniProt Q6Y1S0); assay: PK/PD study: serum cytokines after ODN CpG 1668 challenge; type: in vivo, Sprague-Dawley rats
T1 construct: endogenous in cells; host or cells: live Sprague-Dawley rats
T1 sequence (Q6Y1S0 24-1032): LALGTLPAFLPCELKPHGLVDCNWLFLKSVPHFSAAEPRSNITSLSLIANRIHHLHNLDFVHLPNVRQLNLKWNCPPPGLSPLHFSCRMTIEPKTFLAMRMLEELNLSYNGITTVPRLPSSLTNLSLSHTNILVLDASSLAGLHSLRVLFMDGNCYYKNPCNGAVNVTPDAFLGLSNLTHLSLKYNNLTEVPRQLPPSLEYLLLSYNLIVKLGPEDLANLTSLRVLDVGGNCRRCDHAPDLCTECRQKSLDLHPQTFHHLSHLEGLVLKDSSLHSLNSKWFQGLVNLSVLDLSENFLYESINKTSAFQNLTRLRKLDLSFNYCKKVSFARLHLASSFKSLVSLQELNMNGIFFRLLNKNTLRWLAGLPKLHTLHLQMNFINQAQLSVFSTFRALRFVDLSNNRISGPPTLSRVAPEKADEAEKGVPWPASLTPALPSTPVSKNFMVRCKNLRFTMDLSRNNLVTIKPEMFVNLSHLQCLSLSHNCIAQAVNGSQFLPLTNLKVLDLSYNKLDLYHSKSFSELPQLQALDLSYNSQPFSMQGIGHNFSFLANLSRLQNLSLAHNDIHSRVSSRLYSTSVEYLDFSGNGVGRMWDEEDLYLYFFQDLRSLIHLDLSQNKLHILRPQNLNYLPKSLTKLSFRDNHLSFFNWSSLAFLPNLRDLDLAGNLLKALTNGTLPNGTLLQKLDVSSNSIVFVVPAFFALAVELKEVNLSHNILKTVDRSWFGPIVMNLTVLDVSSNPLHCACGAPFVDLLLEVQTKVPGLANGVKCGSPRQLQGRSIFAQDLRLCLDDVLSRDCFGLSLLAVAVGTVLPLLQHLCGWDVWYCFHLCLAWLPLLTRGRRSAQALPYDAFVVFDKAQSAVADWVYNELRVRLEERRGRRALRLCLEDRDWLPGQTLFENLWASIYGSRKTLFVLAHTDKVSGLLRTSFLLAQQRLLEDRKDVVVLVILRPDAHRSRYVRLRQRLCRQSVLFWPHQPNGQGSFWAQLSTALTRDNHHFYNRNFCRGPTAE
Experimental: The objective of this study was to collect serum following ODN CpG 1668 administration and to determine the pharmacokinetics of JB6121 following oral administration to Sprague-Dawley rats for 7 days. There was a pre-test to establish the appropriate agonist dose for a TLR9 ligand, CpG DNA ODN 1668, in rats using serum IL-12 as the monitored cytokine, groups 1-3, see table 6. Whole blood samples for serum were collected terminally from each animal 3 hours following dosing with ODN CpG 1668. Serum IL-12 was determined by ELISA, data not shown. An agonist dose of lmg/kg was selected for the next phase of the study. For groups administered JB6121 (Groups 4-7), formulations were corrected for base/salt components and not corrected for purity. On the initial day of dose administration, JB6121 formulations were prepared using sterile PBS to the adjusted target dosing concentrations using a factor of 0.8265 to correct for salt content. Dosing was performed as outlined in the following Table 9.
Animals were assigned to four groups (groups 4-7) and administered JB6121 at 0.39, 1.56, 6.25, or 25 mg/kg in a volume of […] once per day by oral gavage for 7 days. On Day 7, two hours following the JB6121 dose (approximate Cmax), ODN CpG 1668 was administered as a single IP dose at 1 mg/kg in a volume of 1 mL/kg. Whole blood samples for bioanalysis and serum samples for serum cytokine analysis were collected by tail vein bleeding or terminally by cardiac puncture at t=2, 3, 4 and 5 h.
Serum IL-12 was monitored at three hours post agonist challenge as a measure of pharmacodynamic JB6121 activity, see FIG. 4. The apparent ID50 post 7-day exposure is approximately 11 ng*h/ml AUC or roughly 0.5 mg/kg dose. […] This would lead to a fourfold greater, 0.5 mg/kg versus 2.4 mg/kg, expected activity in the 7-day rat versus the 1-day mouse. […] We also used multiplex analysis to measure additional cytokines and chemokines in the serum samples. The measurements delivered results for MIP-1a, MIP-2, MCP-1 and IP-10.

[4] = biological target: T2, hERG (Homo sapiens, UniProt Q12809); assay: hERG automated patch clamp (CEREP); type: cell-based
T2 construct: host or cells: CHO (Chinese hamster ovary)
T2 sequence (Q12809 whole entry): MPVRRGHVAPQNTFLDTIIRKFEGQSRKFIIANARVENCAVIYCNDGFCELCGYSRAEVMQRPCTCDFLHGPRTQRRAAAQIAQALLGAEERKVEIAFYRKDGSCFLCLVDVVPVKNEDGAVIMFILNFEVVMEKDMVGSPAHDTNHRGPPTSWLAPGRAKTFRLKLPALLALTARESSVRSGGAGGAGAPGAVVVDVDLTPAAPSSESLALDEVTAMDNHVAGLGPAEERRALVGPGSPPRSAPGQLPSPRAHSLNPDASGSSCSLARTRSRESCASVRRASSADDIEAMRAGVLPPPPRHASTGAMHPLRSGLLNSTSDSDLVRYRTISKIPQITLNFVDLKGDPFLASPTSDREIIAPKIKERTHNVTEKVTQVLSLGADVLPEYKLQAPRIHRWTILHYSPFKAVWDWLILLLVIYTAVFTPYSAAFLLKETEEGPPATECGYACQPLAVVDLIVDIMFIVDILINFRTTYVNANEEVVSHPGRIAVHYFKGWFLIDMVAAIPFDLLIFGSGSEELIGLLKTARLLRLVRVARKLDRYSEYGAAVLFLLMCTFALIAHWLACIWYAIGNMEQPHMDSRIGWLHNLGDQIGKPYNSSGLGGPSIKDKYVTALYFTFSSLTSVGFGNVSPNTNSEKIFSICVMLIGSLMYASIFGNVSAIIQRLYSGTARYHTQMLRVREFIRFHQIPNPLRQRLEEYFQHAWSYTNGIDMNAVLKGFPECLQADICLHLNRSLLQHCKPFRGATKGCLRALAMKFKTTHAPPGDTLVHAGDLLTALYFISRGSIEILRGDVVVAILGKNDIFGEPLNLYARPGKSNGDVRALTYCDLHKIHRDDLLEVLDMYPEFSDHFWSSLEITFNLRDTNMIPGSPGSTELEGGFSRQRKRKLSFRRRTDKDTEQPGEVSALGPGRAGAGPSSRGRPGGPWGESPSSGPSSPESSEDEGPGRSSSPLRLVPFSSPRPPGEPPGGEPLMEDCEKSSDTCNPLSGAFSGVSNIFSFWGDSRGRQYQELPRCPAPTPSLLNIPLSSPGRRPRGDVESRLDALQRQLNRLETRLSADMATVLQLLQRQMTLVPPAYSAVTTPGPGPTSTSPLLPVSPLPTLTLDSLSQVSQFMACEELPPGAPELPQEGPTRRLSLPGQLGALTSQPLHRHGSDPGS
Experimental: as §1

**Q.** With `CN1CCN(c2nc(NCCN3CCOCC3)c3nc(Cl)c(NCCN4CCOCC4)nc3n2)CC1` [JB6121, 6-chloro-2-(4-methylpiperazin-1-yl)-N^4,N^7-bis(2-morpholinoethyl)pteridine-4,7-diamine] as the molecule, how does the solubility ([1]; PBS, pH 7.4, aqueous buffer, read-out: Aqueous Solubility, PBS, pH 7.4) read?
**A.** > 200 µM

**Q.** And the solubility ([1]; simulated gastric fluid, read-out: Aqueous Solubility, simulated Gastric Fluid)?
**A.** > 200 µM

**Q.** And the solubility ([1]; simulated intestinal fluid, fassgf or other biorelevant, read-out: Aqueous Solubility, simulated Intestinal Fluid)?
**A.** 195 µM (≈ 102 µg/mL)

**Q.** And the logD [2]?
**A.** 0.995

**Q.** And the ED50 ([3]; rat, po, serum IL-12, 3 h post agonist challenge, read-out: apparent ID50 post 7-day exposure, as dose)?
**A.** ~0.5 mg/kg

**Q.** What about the inhibition at 1.56 mg/kg ([3]; rat, 1.56 mg/kg dose, PO daily x7 days) of the same molecule?
**A.** > 80%

**Q.** What about the ED50 ([3]; rat, serum IP-10, read-out: ID50, IP-10 (multiplex analysis)) of the same molecule?
**A.** ~2.8 mg/kg

**Q.** And the “apparent ID50 post 7-day exposure, as AUC” value ([3]; serum IL-12, 3 h post agonist challenge)?
**A.** approximately 11 ng*h/ml

**Q.** What about the inhibition at 10 µM [4] of the same molecule?
**A.** 11%
